From patent US9920022B2, “Small molecule compound and synthesizing method and uses thereof” (TECHNODERMA MEDICINES PTE LTD., priority 2014, dated 2018)

Legend:
Thyroid Receptor TRβ = target: T1, Thyroid Receptor TRβ (Homo sapiens, UniProt P10828); test: Thyroid Receptor TRβ Agonist Assay (luciferase reporter gene, co-transfected HEK-293 cells); type: cell-based; conditions: TRβ plasmid + thyroid hormone response element luciferase reporter in HEK-293 cells; 24 hours; maximum concentration 10 μM
T1 construct: expressed in transfected cells; host or cells: HEK-293
T1 sequence (P10828 1-461): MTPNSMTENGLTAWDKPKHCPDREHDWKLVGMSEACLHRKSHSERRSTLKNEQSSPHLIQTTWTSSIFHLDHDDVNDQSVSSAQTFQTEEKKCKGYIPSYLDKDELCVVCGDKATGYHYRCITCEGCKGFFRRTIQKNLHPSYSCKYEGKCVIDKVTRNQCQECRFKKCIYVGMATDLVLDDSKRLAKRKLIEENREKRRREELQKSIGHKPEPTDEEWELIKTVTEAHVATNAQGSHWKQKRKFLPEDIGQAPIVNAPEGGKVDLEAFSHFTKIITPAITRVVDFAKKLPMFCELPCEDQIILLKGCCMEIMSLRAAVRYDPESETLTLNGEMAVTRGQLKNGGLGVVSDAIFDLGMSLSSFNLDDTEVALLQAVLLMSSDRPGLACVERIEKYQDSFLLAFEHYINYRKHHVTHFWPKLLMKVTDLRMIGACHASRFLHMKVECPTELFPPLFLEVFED
Procedure: B: Thyroid Receptor TRβ Agonist Assay
(2) The residual poly-D-lysine is removed. On the 96-well plate, HEK-293 cells are plated at a density of 4.0×10^4 cells/well in DMEM medium containing 10% FBS. The cells are cultured at 37° C. overnight.
(1) The culture medium is removed 2 hours before transfection. 100 μl of DMEM culture medium containing 10% FBS treated by activated carbon is added to each well, and incubated at 37° C. for 2 hours.
3. For each reaction system, 50 ng thyroid receptor (TRβ) plasmid DNA and 50 ng luciferase reporter gene plasmid DNA of thyroid hormone response element are added. Mixing it completely by gentle pipeting.
4. 0.2 μl of transfection reagent X-tremeGENE HP is added to the diluted co-transfected DNA mixture. Mixing it completely by gentle pipeting.
(3) 10 μl of the complex is added to each well in a 96 well plate. Gently shaking the culturing plate to evenly distribute the complex.
(4) The culture is incubated at 37° C. for 24 hours.
(1) Preparation of compound diluent: for each compound, half-log dilutions of each test compound is prepared using DMEM medium containing 10% charcoal stripped FBS (containing 0.1% DMSO), with a maximum concentration of 10 μM of the test compound.
(2) Removing the culture medium and adding the formulated compound diluent (the final DMSO concentration is 0.1%).
(3) For blank control, DMEM medium containing 10% charcoal stripped FBS (containing 0.1% DMSO) is added.
(4) Incubating at 37° C. for 24 hours.
(1) Removing the culture medium, adding 40 μl phosphate (PBS) buffer to each well.
(2) Adding 40 μl Bright-Glo reagent to each well and vortexing for 30 seconds, followed by incubation in dark for 2 min.
(3) Transferring 70 μl cell lysate from each well into a white polystyrene 96-well plate.
(4) Detecting the Luciferase signal intensity by Envision.

C3H mice = test: Mouse experiment: hair growth after topical administration; type: in vivo; conditions: for day of topical administration on which the skin became black / day on which hair growth was observed: 20 μl/mouse topical twice/day
Procedure: A. Mouse Experiment: TMI-105795 is Used as Test Compound in the Experiment
The tested compound (TMI-105795) is sub-packaged into dose volume and kept at −20° C. before use. All tested compounds (including solvents) are labeled as TDM-001-1, TDM-001-2, TDM-001-3 and TDM-001-4.
Female C3H mice (35-39 days after birth at arrival) were obtained from Beijing Vital River Laboratory Animal Technology Co., Ltd. The mice were selected for inclusion based upon acceptable clinical condition and body weight. Animals were housed randomly 5 mice per cage before grouping. All mice were kept at least one week in acclimation in the animal facility prior to any procedures. Animal identification number was labeled on the tail and cage tag respectively.
The test compound is TMI-105795 (solvent is polyethylene glycol/ethanol (30/70)), it is sub-packaged into dose volume and kept in −20° C. before use. It was topically administered together with solvent twice every day at 9:30 am and 4:00 pm.
Hair growth grade, peripheral hair growth, scaling, erythema will be scored on Monday, Wednesday and Friday from the beginning on the Day 1 to the termination of the experiment.
All experimental mice were carefully dipped with the hair on the back of the rear leg with shaver. Care must be taken to avoid any irritation to the skin on the back of mouse. Skin color on the back was confirmed again. All mice must show pink skin, any mice that show signs of skin abrasion were excluded from the experiment. Mice were randomly divided into 5 groups and housed individually.
Body weight of each mouse is recorded before administration every morning. 20 μl corresponding solution is aspirated by pipette and applied to shaving area on the back of the mouse, and then the drug solution is uniformly applied to the back between rear legs with tips, about a region with a diameter of 1 cm. It is ensured that the administered region is the same one every day, and the mouse is put into the case after drying of liquid.
All mice are scored on Monday Wednesday and Friday each week from the beginning on the Day 1 to the termination of the study, using the following scoring guidelines:
a. Hair Growth Grade (Administration Area):
0=No color change, or hair growth on the skin
1=Skin color changes uniformly over the administration area from pink to gray/black with no visible hair growth;
2=Appearance of short and sparse hair growth;
3=Full thick hair growth similar to the surrounding normal hair coat.
b. Peripheral Hair Growth (Defined as Hair Growth that is in the Dipped Area, but not in the Administration Area):
0=No color change, or hair growth on the skin;
1=Skin color changes to gray/black with no visible hair growth;
2=Peripheral sparse hair growth;
3=Peripheral thick hair growth.

[1] = all treatment groups, 3 weeks topical administration

SMILES | EC50 (Thyroid Receptor TRβ) [nM] | other results
Cc1ccc(Cc2cc(Oc3c(Cl)cc(NC(=O)C(=O)NO)cc3Cl)ccc2O)cc1 [TMI-105903, N1-(3,5-dichloro-4-(3-(4-methylbenzyl)-4-hydroxyphenoxy)phenyl)-N2-oxalyl hydroxylamine] | 136 | –
O=C(NO)C(=O)Nc1cc(Cl)c(Oc2ccc(O)c(CN3CCC(Cc4ccccc4)CC3)c2)c(Cl)c1 [TMI-105959] | 617 | –
O=C1CN(Cc2cc(Oc3c(Cl)cc(NC(=O)C(=O)NO)cc3Cl)ccc2O)CCN1 [TMI-105963] | 9580 | –
O=C(NO)C(=O)Nc1cc(Cl)c(Oc2ccc(O)c(Cc3ccc(F)cc3)c2)c(Cl)c1 [TMI-105795, N1-(3,5-dichloro-4-(3-(4-fluorobenzyl)-4-hydroxyphenoxy)phenyl)-N2-oxalyl hydroxylamine] | 179 | day of topical administration on which the skin became black (C3H mice; TDM-001-2 group, 0.005% (w/v)): 12 days; day on which hair growth was observed (C3H mice; TDM-001-2 group, 0.005% (w/v)): 16 days; day of topical administration on which the skin became black (C3H mice; TDM-001-3 group, 0.01% (w/v)): 2 days; day on which hair growth was observed (C3H mice; TDM-001-3 group, 0.01% (w/v)): 6 days; day of topical administration on which the skin became black (C3H mice; TDM-001-4 group, 0.05% (w/v)): 2 days; day on which hair growth was observed (C3H mice; TDM-001-4 group, 0.05% (w/v)): 8 days; body weight change during administration (C3H mice; all groups, 3 weeks topical administration): would not induce the loss of animal body weight; erythema of the skin (C3H mice; [1]): not observed; scaling of the skin (C3H mice; [1]): not observed; promoting hair growth compared with solvent group (C3H mice; female C3H mice, topical, twice/day, 5 days/week for 3 weeks, every dosing amount (0.005%, 0.01%, 0.05% w/v)): positive result in promoting hair growth; dose dependence of hair growth effect (C3H mice; female C3H mice, topical, 0.005%, 0.01%, 0.05% (w/v)): dose dependent effect is observed
O=C(NO)C(=O)Nc1cc(Cl)c(Oc2ccc(O)c(Cc3ccc(Cl)c(Cl)c3)c2)c(Cl)c1 [TMI-105905, N1-(3,5-dichloro-4-(3-(3,4-dichlorobenzyl)-4-hydroxyphenoxy)phenyl)-N2-oxalyl hydroxylamine] | 400 | –
O=C(NO)C(=O)Nc1cc(Cl)c(Oc2ccc(O)c(Cc3ccccc3F)c2)c(Cl)c1 [TMI-105966] | 61.1 | –
O=C(NO)C(=O)Nc1cc(Cl)c(Oc2ccc(O)c(Cc3cccc(F)c3)c2)c(Cl)c1 [TMI-105965] | 96 | –
O=C(NO)C(=O)Nc1cc(Cl)c(Oc2ccc(O)c(CN3CCOCC3)c2)c(Cl)c1 [TMI-105906, N1-(3,5-dichloro-4-(4-hydroxy-3-(morpholinomethyl)phenoxy)phenyl)-N2-oxalyl hydroxylamine] | 925 | –

More lines, in order of falling EC50 (Thyroid Receptor TRβ), values ahead:

EC50 (Thyroid Receptor TRβ) [nM] | SMILES | other results
9700 | O=C(NO)C(=O)Nc1cc(Cl)c(Oc2ccc(O)c(CN3CCCC3)c2)c(Cl)c1 [TMI-105958, N1-(3,5-dichloro-4-(4-hydroxy-3-(methylpyrrolidin-1-methyl)phenoxy)phenyl)-N2-oxalyl hydroxylamine] | –
9240 | O=C(NO)C(=O)Nc1cc(Cl)c(Oc2ccc(O)c(CN3Cc4ccccc4C3)c2)c(Cl)c1 [TMI-105961, N1-(3,5-dichloro-4-(4-hydroxy-3-(isoindolin-2-methyl)phenoxy)phenyl)-N2-oxalyl hydroxylamine] | –
8760 | CN1CCN(Cc2cc(Oc3c(Cl)cc(NC(=O)C(=O)NO)cc3Cl)ccc2O)CC1 [TMI-105957, N1-(3,5-dichloro-4-(4-hydroxy-3-(4-methylpiperazine-1-methyl)phenoxy)phenyl)-N2-oxalyl hydroxylamine] | –
6520 | O=C(NO)C(=O)Nc1cc(Cl)c(Oc2ccc(O)c(CN3CCC(O)CC3)c2)c(Cl)c1 [TMI-105956] | –
3720 | O=C(NO)C(=O)Nc1cc(Cl)c(Oc2ccc(O)c(CN3CCc4ccccc4C3)c2)c(Cl)c1 [TMI-105962, N1-(3,5-dichloro-4-(3-(3,4-dihydroisoquinolin-2(1H)-methyl)-4-hydroxyphenoxy)phenyl)-N2-oxalyl hydroxylamine] | –
250 | CS(=O)(=O)c1ccc(Cc2cc(Oc3c(Cl)cc(NC(=O)C(=O)NO)cc3Cl)ccc2O)cc1 [TMI-105902, N1-(3,5-dichloro-4-(3-(4-methylsulphonylbenzyl)-4-hydroxyphenoxy)phenyl)-N2-oxalyl hydroxylamine] | –
